The target of the experiment is T1, 5-Lipoxygenase from RBL-1 20,000 xg Supernatant (Rattus norvegicus, UniProt P12527).
T1 construct: supermatant from 1.5 million homogenized RBL-1 cells; endogenous in cells; host or cells: RBL-1 cells, 20,000 x g supernatant of homogenate
T1 sequence (P12527 1-673): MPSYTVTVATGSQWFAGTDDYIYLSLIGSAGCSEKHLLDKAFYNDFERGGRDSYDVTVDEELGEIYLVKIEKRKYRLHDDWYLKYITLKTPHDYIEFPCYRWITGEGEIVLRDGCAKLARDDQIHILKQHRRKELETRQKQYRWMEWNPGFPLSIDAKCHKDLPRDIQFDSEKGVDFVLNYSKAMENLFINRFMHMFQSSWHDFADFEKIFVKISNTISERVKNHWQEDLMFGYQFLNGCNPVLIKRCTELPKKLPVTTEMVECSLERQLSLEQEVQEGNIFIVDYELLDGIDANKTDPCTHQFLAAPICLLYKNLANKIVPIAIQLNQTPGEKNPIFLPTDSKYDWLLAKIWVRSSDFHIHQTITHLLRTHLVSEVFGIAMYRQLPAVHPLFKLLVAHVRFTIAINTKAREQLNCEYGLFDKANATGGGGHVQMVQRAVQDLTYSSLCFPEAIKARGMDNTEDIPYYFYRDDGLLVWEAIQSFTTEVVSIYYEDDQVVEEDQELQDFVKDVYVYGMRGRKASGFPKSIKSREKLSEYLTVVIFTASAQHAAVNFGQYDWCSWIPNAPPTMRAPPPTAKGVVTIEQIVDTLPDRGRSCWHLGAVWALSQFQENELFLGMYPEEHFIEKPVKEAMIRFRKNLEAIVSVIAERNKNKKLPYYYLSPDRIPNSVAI
Nature of the experiment: In vitro inhibition of 5-lipoxygenase from RBL-1 20,000 xg supernatant. The experiment is classed as biochemical. To be noted: radiolabeled arachidonic acid. On the procedure:
Assays to determine 5-lipoxygenase inhibitory activity were performed in […] incubations containing the 20,000xg supermatant from 1.5 million homogenized RBL-1 cells and various concentrations of the test compound. Reactions were initiated by addition of radiolabeled arachidonic acid and terminated by acidification and ether extraction. Reaction products were separated from nonconverted substrate by thin layer chromatography and measured by liquid scintillation spectroscopy. All incubations are performed in triplicate. Inhibition of 5-lipoxygenase activity was calculated as the ratio of the amount of product formed in the presence and absence of inhibitor. […] (Dyer, R.D.; Haviv, F.; Hanel, A. M.; Bornemier, D. A.; Carter, G. W. Fed. Proc., Fed. Am. Soc. Exp. Biol. 1984, 43, 1462A).
Broadly, the IC50 is the point on the concentration scale where inhibition reaches its midpoint. A lower IC50 goes with inhibition by little substance. `CNC(=O)N(O)C(C)c1ccc(OCc2ccccc2)cc1` (centres unmarked) [Example 2, N-hydroxy-N-1-(4-phenylmethoxyphenyl) ethyl N'-methyl urea] gave an IC50 of 370 nM.
In the case of `CC(c1ccc(OCc2ccccc2)cc1)N(O)C(=O)N(C)C` (centres unmarked) [Example 3] it was 680 nM; in that of `CNC(=O)N(O)Cc1ccc(OCc2ccccc2)cc1` [Example 6, N-hydroxy-N-(4-phenylmethoxyphenylmethyl)-N'-methyl-urea], 540 nM; in that of `CC(c1ccc(OCCc2ccccc2)cc1)N(O)C(N)=O` (centres unmarked) [Example 8, N-hydroxy-N-(1-(4-(2-phenyl)ethoxyphenyl)ethyl) urea], 330 nM.
The value for `CC(c1ccc2ccccc2c1)N(O)C(=O)NO` (centres unmarked) [Example 10, N,N'-dihydroxy-N-(1-(2-naphthyl)ethyl) urea] was 870 nM.
The value for `CCCCOc1ccc(C(C)N(O)C(N)=O)cc1` (centres unmarked) [Example 11, N-hydroxy-N-(1-(4-butoxyphenyl)ethyl) urea] was 1100 nM.
For `CCCCOc1cccc(C(C)N(O)C(N)=O)c1` (centres unmarked) [Example 13, N-hydroxy-N-(1-(3-butoxyphenyl)ethyl) urea], the IC50 is 2800 nM.
The value for `Cc1ccsc1C(C)N(O)C(N)=O` (centres unmarked) [Example 46, N-hydroxy-N-1-(3-methylthien-2-yl)ethyl urea] was 2100 nM; that for `CC(c1ccc(-c2ccccn2)s1)N(O)C(N)=O` (centres unmarked) [Example 48, N-hydroxy-N-(1-(5-pyrid-2-yl)thien-2-yl)ethyl urea] was 1700 nM; that for `CNC(=O)N(O)Cc1ccc(C)s1` [Example 52, N-hydroxy-N-1-(5-methylthien-2-yl)methyl-N'-methyl urea] was 3900 nM.
The value for `NC(=O)N(O)Cc1ccc(-c2ccccc2)s1` [Example 53, N-hydroxy-N-(1-(5-phenylthien-2-yl)methyl) urea] was 200 nM; that for `CNC(=O)N(O)Cc1ccc(-c2ccccc2)s1` [Example 54, N-hydroxy-N-(1-(5-phenylthien-2-yl)methyl)-N'-methyl urea] was 310 nM; that for `CC(c1ccc(Cc2ccccc2)s1)N(O)C(N)=O` (centres unmarked) [Example 57, N-hydoxy-N-(1-(5-benzylthien-2-yl)ethyl) urea] was 420 nM.
The value for `CCOC(=O)CNC(=O)N(O)C(C)c1cc(C)sc1C` (centres unmarked) [Example 59] was 990 nM.
`Cc1cc(C(C)N(O)C(=O)NCCO)c(C)s1` (centres unmarked) [Example 60, N-hydroxy-N-(1-(2,5-dimethylthien-3-yl)ethyl)-N'-(2-hydroxyethyl) urea] yielded a concentration for half-maximal inhibition (IC50) of 3500 nM.
In the case of `COC(=O)CCCNC(=O)N(O)C(C)c1ccsc1` (centres unmarked) [Example 61] it was 2100 nM; in that of `CCOC(=O)CNC(=O)N(O)C(C)c1ccsc1` (centres unmarked) [Example 62], 4200 nM; in that of `NC(=O)N(O)CCCc1ccsc1` [Example 69, N-hydroxy-N-(3-(1-thien-3-yl)propyl) urea], 1500 nM.
The value for `Cc1ccc(CC(C)N(O)C(N)=O)s1` (centres unmarked) [Example 72, N-Hydroxy-N-(2-(1-(5-methylthien-2-yl))propyl) urea] was 800 nM; that for `CNC(=O)N(O)C(C)c1ccc(Br)cc1` (centres unmarked) [Example 98, N-Hydroxy-N-1-(4-bromophenyl)ethyl-N'-methyl-urea] was 1100 nM; that for `CNC(=O)N(O)C(C)c1ccc(F)cc1F` (centres unmarked) [Example 104, N-Hydroxy-N-(1-(2,4-difluorophenyl)ethyl)-N'-methylurea] was 3900 nM.
The compound `CNC(=O)N(O)C(C)c1ccc(Cl)cc1` (centres unmarked) [Example 108, N-Hydroxy-N-(1-(4-chlorophenyl)ethyl)-N'-methyl urea] came in with an IC50 of 400 nM.
In the case of `CNC(=O)N(O)C(C)c1ccc(F)cc1` (centres unmarked) [Example 110, N-Hydroxy-N-(1-(4-fluorophenyl)ethyl)-N'-methyl urea] it was 2300 nM; in that of `CNC(=O)N(O)C(C)c1ccc(F)c(Br)c1` (centres unmarked) [Example 114, N-Hydroxy-N-(1-(3-bromo-4-fluorophenyl)ethyl)-N'-methyl urea], 900 nM.
`CNC(=O)N(O)C(C)c1ccc(C)c(Br)c1` (centres unmarked) [Example 115, N-Hydroxy-N-(1-(3-bromo-4-methylphenyl)ethyl)-N'-methyl urea] gave an IC50 of 600 nM.
For the compound `COc1ccc(C(C)N(O)C(N)=O)cc1` (centres unmarked) [Example 116, N-Hydroxy-N-(1-(4-methoxyphenyl)ethyl) urea], the IC50 is 4400 nM.
As for `CNC(=O)N(O)C(C)c1ccc(OC)cc1` (centres unmarked) [Example 117, N-Hydroxy-N-(1-(4-methoxyphenyl)ethyl)-N'-methyl urea], 4430 nM corresponded to half-maximal inhibition (IC50).
With `CCCCOc1ccc(C(C)N(O)C(N)=O)cc1` (centres unmarked) [Example 119, N-Hydroxy-N-(1-(4-butoxyphenyl)ethyl) urea], half-maximal inhibition (IC50) required 530 nM.
The value for `C=CCN(CC=C)c1ccc(C(C)N(O)C(N)=O)cc1` (centres unmarked) [Example 121, N-Hydroxy-N-(1-(4-bis-allylaminophenyl)ethyl) urea] was 740 nM.
The value for `CC(c1ccc(F)c(Br)c1)N(O)C(N)=O` (centres unmarked) [Example 122, N-Hydroxy-N-(1-(3-bromo-4-fluorophenyl)ethyl) urea] was 800 nM; that for `Cc1cc(C(C)N(O)C(N)=O)ccc1Cl` (centres unmarked) [Example 123, N-Hydroxy-N-(1-(4-chloro-3-methylphenyl)ethyl) urea] was 500 nM; that for `CNC(=O)N(O)C(C)c1ccc(Cl)c(C)c1` (centres unmarked) [Example 124, N-Hydroxy-N-(1-(4-chloro-3-methylphenyl)ethyl)-N'-methyl urea] was 600 nM.
For the compound `NC(=O)N(O)Cc1cccc(Oc2ccccc2)c1` [Example 125], inhibition was half-maximal at 400 nM (IC50).
As to `CNC(=O)N(O)Cc1cccc(Oc2ccccc2)c1` [Example 126], it took 800 nM to reach half-maximal inhibition (IC50).
The value for `NC(=O)N(O)Cc1sccc1Br` [Example 127, N-hydroxy-N-(3-bromothien-2-yl)methyl urea] was 1200 nM; that for `NC(=O)N(O)Cc1cc(Br)cs1` [Example 128, N-hydroxy-N-(4-bromothien-2-yl)methyl urea] was 2500 nM.
The value for `NC(=O)N(O)Cc1ccc(Cl)s1` [Example 129, N-hydroxy-N-(5-chlorothien-2-yl)methyl urea] was 2000 nM; that for `NC(=O)N(O)Cc1ccc(Br)s1` [Example 130, N-hydroxy-N-(5-bromothien-2-yl)methyl urea] was 900 nM.
In the case of `CC(c1cc(Br)cs1)N(O)C(N)=O` (centres unmarked) [Example 132, N-hydroxy-N-[1-(4-bromothien-2-yl)ethyl]urea] it was 900 nM; in that of `CC(c1ccc(Br)s1)N(O)C(N)=O` (centres unmarked) [Example 133, N-hydroxy-N-[1-(5-bromothien-2-yl)ethyl]urea], 900 nM; in that of `NC(=O)N(O)Cc1sccc1Sc1ccccc1` [Example 134, N-hydroxy-N-[3-(phenylthio)thien-2-yl]methyl urea], 300 nM.
The compound `NC(=O)N(O)Cc1ccc(Sc2ccccc2)s1` [Example 135, N-hydroxy-N-[5-(phenylthio)thien-2-yl]methyl urea] had an IC50 of 200 nM.
`NC(=O)N(O)Cc1csc(Sc2ccccc2)c1` [Example 137, N-hydroxy-N-[5-(phenylthio)thien-3-yl]methyl urea] yielded an IC50 of 400 nM.
In the case of `CC(c1ccc(Sc2ccccc2)s1)N(O)C(N)=O` (centres unmarked) [Example 139, N-hydroxy-N-[1-(5-(phenylthio)-thien-2-yl)ethyl]urea] it was 400 nM.
`NC(=O)N(O)Cc1sccc1Sc1ccc(O)cc1` [Example 140, N-hydroxy-N-[3-(4-hydroxyphenylthio)thien-2-yl]methyl urea] gave an IC50 of 400 nM.
The value for `NC(=O)N(O)Cc1sccc1Sc1ccc(Br)cc1` [Example 141, N-hydroxy-N-[3-(4-bromophenylthio)thien-2-yl]methyl urea] was 200 nM; that for `NC(=O)N(O)Cc1sccc1Sc1ccc(Cl)cc1` [Example 142, N-hydroxy-N-[3-(4-chlorophenylthio)thien-2-yl]methyl urea] was 300 nM; that for `NC(=O)N(O)Cc1sccc1Sc1ccc(F)cc1` [Example 143, N-hydroxy-N-[3-(4-fluorophenylthio)thien-2-yl]methyl urea] was 300 nM.
In turn, `CC(C)(C)c1ccc(Sc2ccsc2CN(O)C(N)=O)cc1` [Example 144, N-hydroxy-N-[3-(4-tertbutylphenylthio)thien-2-yl]methyl urea] registered an IC50 of 200 nM.
The compound `NC(=O)N(O)Cc1sccc1Sc1ccccn1` [Example 145, N-hydroxy-N-[3-(2-pyridylthio)thien-2-yl]methyl urea] showed a 50% inhibitory concentration (IC50) of 1500 nM.

(Values after patent publication US5185363A, “Urea based lipoxygenase inhibiting compounds” (Abbott Laboratories, priority 1991, dated 1993).)
